Values quoted from earlier work, collected in patent US20250235427A1, “5-METHOXY-N,N-[…][…] THE TREATMENT OF SOCIAL/EMOTIONAL […] DETACHMENT” (GH RESEARCH IRELAND LIMITED, priority 2022, published 2025).

Test system: patients with treatment resistant bipolar depression
Conditions: single 0.5·mg·kg^1 infusion; cited from earlier work

CNC1(c2ccccc2Cl)CCCCC1=O (centres unmarked) [ketamine]
duration of anti-anhedonic effect: up to 14 days
time to decrease of anhedonia (effect onset): ≤ 40 min
